In brackets after ≈: the same amount, converted by molar mass. Activity calls are given as the source filed them. The calls are words filed in the database; no cut-off is given here.
Key:
[1] = system: Mycobacterium tuberculosis variant bovis; assay: Antimycobacterial activity against Mycobacterium bovis BCG ATCC 35734 after 5 days by broth dilution method; format: functional; settings: ATCC 35734, 120 h
[2] = system: Mycobacterium tuberculosis variant bovis; assay: Antimycobacterial activity against Mycobacterium bovis BCG ATCC 35734 assessed as growth inhibition at 10 uM after 5 days relative to control; format: functional; settings: ATCC 35734, 120 h, read-out: GI
[3] = system: Mycobacterium tuberculosis variant bovis; assay: Antimycobacterial activity against Mycobacterium bovis BCG ATCC 35734 using middlebrook 7H9 broth media supplemented with 10 % fetal bovine serum after 5 days by broth dilution method; format: functional; settings: ATCC 35734, 120 h
[4] = system: Mycobacterium tuberculosis variant bovis; assay: Antimycobacterial activity against Mycobacterium bovis BCG ATCC 35734 using middlebrook 7H9 broth media after 5 days by broth dilution method; format: functional; settings: ATCC 35734, 120 h
[5] = system: Mycobacterium tuberculosis variant bovis; assay: Antimycobacterial activity against Mycobacterium bovis BCG ATCC 35734 up to 4 times MIC90 after 8 weeks; format: functional
[6] = system: Mycobacterium tuberculosis variant bovis; assay: Antimycobacterial activity against Mycobacterium bovis BCG ATCC 35734 assessed as membrane depolarization at 200 uM by DiOC2-based fluorescence assay relative to control; format: functional, Mycobacterium tuberculosis variant bovis BCG
[7] = system: Mycobacterium tuberculosis variant bovis; assay: Antimycobacterial activity against Mycobacterium bovis BCG ATCC 35734 assessed as increase in permeabilized cells at 12 uM by propidium iodide-staining based FACS analysis; format: functional, cell-based; settings: TDE = time-dependent effect
[8] = system: Mycobacterium tuberculosis variant bovis; assay: Bactericidal activity against Mycobacterium bovis BCG ATCC 35734 assessed as 1000 fold kill under low-oxygen tension conditions by time kill assay; format: functional, Mycobacterium tuberculosis variant bovis BCG
[9] = system: Mycobacterium tuberculosis variant bovis; assay: Bactericidal activity against Mycobacterium bovis BCG ATCC 35734 assessed as reduction in colony forming units measured on day 4 by time kill assay; format: functional; settings: ATCC 35734, 96 h, read-out: MBC99.9
[10] = system: Mycobacterium tuberculosis variant bovis; assay: Antimycobacterial activity against Mycobacterium bovis BCG ATCC 35734 assessed as membrane depolarization at 12 uM by DiOC2-based fluorescence assay; format: functional; settings: TDE = time-dependent effect
[11] = system: Mycobacterium tuberculosis variant bovis; assay: Antimycobacterial activity against Mycobacterium bovis BCG ATCC 35734 assessed as membrane depolarization at 1.6 uM measured daily over 5 days of compound treatment by DiOC2-based fluorescence assay; format: functional
[12] = system: Mycobacterium tuberculosis variant bovis; assay: Induction of cell envelope stress in clgR-pspA expressing Mycobacterium bovis BCG ATCC 35734 co-expressing RFP assessed as increase in clgR promoter gene activity at compound MIC50 after 24 hrs by fluorescence assay relative to control; format: functional, Mycobacterium tuberculosis variant bovis BCG
[13] = system: Mycobacterium tuberculosis variant bovis; assay: Antimycobacterial activity against Mycobacterium bovis BCG ATCC 35734 assessed as increase in permeabilized cells at 1.6 uM measured daily over 5 days of compound treatment by propidium iodide-staining based FACS analysis; format: functional, cell-based
[14] = system: Mycobacterium tuberculosis variant bovis; assay: Antimycobacterial activity against Mycobacterium bovis BCG ATCC 35734 in presence of menaquinone; format: functional
[15] = system: Mycobacterium tuberculosis variant bovis; assay: Induction of cell envelope stress in iniBAC expressing Mycobacterium bovis BCG ATCC 35734 co-expressing RFP assessed as increase in iniBAC promoter gene activity at compound MIC50 after 24 hrs by fluorescence assay relative to control; format: functional, Mycobacterium tuberculosis variant bovis BCG
[16] = system: Mycobacterium tuberculosis variant bovis; assay: Bactericidal activity against Mycobacterium bovis BCG ATCC 35734 assessed as reduction in colony forming units at 1.6 uM measured daily over 5 days of compound treatment by time kill assay; format: functional

| Structure (SMILES) | MIC50 [1] | MIC90 [1] | inhibition of growth at 10 µM [2] | other results |
| --- | --- | --- | --- | --- |
| Fc1ccc2c(c1)c(CN1CCCCC1)cn2CCCOc1ccccc1 | 19 µM (≈ 6.96 µg/mL) | 50 µM (≈ 18.3 µg/mL) | 99% | – |
| CCCCCCCCn1cc(CN(CC)CCC)c2cc(F)ccc21 | 7 µM (≈ 2.43 µg/mL) | 39 µM (≈ 13.5 µg/mL) | 99% | – |
| CCCCCCCCn1cc(CN2CCCCCC2)c2cc(OC)ccc21 | 4 µM (≈ 1.48 µg/mL) | 5 µM (≈ 1.85 µg/mL) | 99% | – |
| CCCCCCCCn1cc(CN2CCC3(CC2)OCCO3)c2ccc(OC)cc21 | 2 µM (≈ 0.829 µg/mL) | 4 µM (≈ 1.66 µg/mL) | 99% | MIC50 [3]: 2.5 µM (≈ 1.04 µg/mL); MIC50 [4]: 2.1 µM (≈ 0.871 µg/mL) |
| CC(C)=CCC/C(C)=C/Cn1cc(CN2CCCCCC2)c2cc(F)ccc21 | 4 µM (≈ 1.53 µg/mL) | 7 µM (≈ 2.68 µg/mL) | 99% | – |
| CCCCCCCCn1cc(CNC(C)C)c2cc(F)ccc21 | 12 µM (≈ 3.82 µg/mL) | 26 µM (≈ 8.28 µg/mL) | 99% | – |
| CCCCCCCCn1cc(CN2CCCCC2)c2cc(Br)ccc21 | 5 µM (≈ 2.03 µg/mL) | 9 µM (≈ 3.65 µg/mL) | 99% | – |
| CCCCCCCCn1cc(CN2CCCCC2)c2ccc(OC)cc21 | 7 µM (≈ 2.5 µg/mL) | 13 µM (≈ 4.64 µg/mL) | 99% | – |
| NNC(=O)c1ccncc1 | – | – | – | Activity [5]: inactive |
| CCCCCCCCCCn1cc(CN2CCCCCC2)c2c(F)cccc21 | 10 µM (≈ 3.87 µg/mL) | 15 µM (≈ 5.8 µg/mL) | 99% | – |
| N#CC(C#N)=NNc1cccc(Cl)c1 [CARBONYL CYANIDE M-CHLOROPHENYLHYDRAZONE] | – | – | – | Activity [6]: 90% |
| CCCCCCCCn1cc(CN2CCN(CC)CC2)c2cc(F)ccc21 | 13 µM (≈ 4.86 µg/mL) | 32 µM (≈ 12 µg/mL) | 99% | – |
| CCCN(C)Cc1cn(C/C=C(\C)CCC=C(C)C)c2ccc(F)cc12 | 13 µM (≈ 4.63 µg/mL) | 28.5 µM (≈ 10.2 µg/mL) | 99% | – |
| CCCCCCCCn1cc(CN(C)C)c2cc(F)ccc21 | 14 µM (≈ 4.26 µg/mL) | 20 µM (≈ 6.09 µg/mL) | 99% | – |
| CC(C)=CCC/C(C)=C/Cn1cc(CN2CCCCC2)c2cc(Br)ccc21 | 8 µM (≈ 3.44 µg/mL) | 10 µM (≈ 4.29 µg/mL) | 99% | – |
| CCCCCCCCn1cc(CN2CCC(C)CC2)c2cc(OC)ccc21 | 4 µM (≈ 1.48 µg/mL) | 6 µM (≈ 2.22 µg/mL) | 99% | – |
| CC(C)=CCC/C(C)=C/Cn1cc(CNC2CCCCCC2)c2cc(F)ccc21 | 45 µM (≈ 17.8 µg/mL) | 50 µM (≈ 19.8 µg/mL) | 99% | – |
| CC(C)=CCC/C(C)=C/Cn1cc(CN2CCCCC2)c2ccccc21 | 3 µM (≈ 1.05 µg/mL) | 6 µM (≈ 2.1 µg/mL) | 99% | – |

| Structure (SMILES) | MIC50 [1] | MIC90 [1] | inhibition of growth at 10 µM [2] | other results |
| --- | --- | --- | --- | --- |
| Fc1ccc2c(c1)c(CN1CCCCC1)cn2Cc1ccccc1 | 35 µM (≈ 11.3 µg/mL) | > 50 µM | 99% | – |
| CC(C)=CCC/C(C)=C/Cn1cc(C(=O)N2CCCCC2)c2cc(F)ccc21 | > 50 µM | > 50 µM | 99% | – |
| CCCCCCCCn1cc(CN2CCCCC2)c2ccccc21 | 14 µM (≈ 4.57 µg/mL) | 31 µM (≈ 10.1 µg/mL) | 99% | – |
| CCCCCCCCn1cc(CN2CCCCC2)c2cccc(F)c21 | 8 µM (≈ 2.76 µg/mL) | 11 µM (≈ 3.79 µg/mL) | 99% | – |
| CCCCCCCCn1cc(CN(CCCC)CCCC)c2cc(F)ccc21 | 11 µM (≈ 4.27 µg/mL) | > 50 µM | 99% | – |
| CCCCCCCCn1cc(CNC23CC4CC(CC(C4)C2)C3)c2ccc(F)cc21 | 3 µM (≈ 1.23 µg/mL) | 5 µM (≈ 2.05 µg/mL) | 99% | – |
| CCCCCCCCn1cc(CNC23CC4CC(CC(C4)C2)C3)c2cccc(OC)c21 | 3 µM (≈ 1.27 µg/mL) | 8 µM (≈ 3.38 µg/mL) | 99% | – |
| CC(C)=CCC/C(C)=C/Cn1cc(CN2CCC3(CC2)OCCO3)c2cc(F)ccc21 | 5 µM (≈ 2.13 µg/mL) | 9 µM (≈ 3.84 µg/mL) | 99% | – |
| CC(C)=CCC/C(C)=C/Cn1cc(CN2CCN(C)CC2)c2cc(F)ccc21 | 15 µM (≈ 5.75 µg/mL) | 23 µM (≈ 8.82 µg/mL) | 99% | – |
| CCCCCCCCn1cc(CN2CCC3(CC2)OCCO3)c2ccc(F)cc21 | 3 µM (≈ 1.21 µg/mL) | 5 µM (≈ 2.01 µg/mL) | 99% | – |
| CC(C)=CCC/C(C)=C/Cn1cc(CN2CCOCC2)c2cc(F)ccc21 | 15.5 µM (≈ 5.74 µg/mL) | > 50 µM | 99% | – |
| CCCCCCCCn1cc(CNC23CC4CC(CC(C4)C2)C3)c2c(OC)cccc21 | 6 µM (≈ 2.54 µg/mL) | 12 µM (≈ 5.07 µg/mL) | 99% | – |
| CCCCCCCCn1cc(CN2CCCCC2)c2c(F)cccc21 | 6 µM (≈ 2.07 µg/mL) | 11 µM (≈ 3.79 µg/mL) | 99% | – |
| CCCCCCCCn1cc(CN2CCCCCC2)c2c(F)cccc21 | 2 µM (≈ 0.717 µg/mL) | 6 µM (≈ 2.15 µg/mL) | 99% | Activity [7]: Tde; MIC50 [3]: 4.5 µM (≈ 1.61 µg/mL); WCC99.9 [8]: 12 to 24 µM; MIC50 [4]: 5 µM (≈ 1.79 µg/mL); Activity [5]: Active; MBC [9]: 12 µM (≈ 4.3 µg/mL); Activity [10]: Tde; Activity [11]: Active; fold change (FC) [12]: 5; Activity [13]: Active; Activity [14]: Active; fold change (FC) [15]: 10; Activity [16]: Active |
| CC(C)=CCC/C(C)=C/Cn1cc(CN2CCCCC2)c2cc(F)ccc21 | 5 µM (≈ 1.84 µg/mL) | 11 µM (≈ 4.05 µg/mL) | 99% | – |
| CCCCCCCCn1cc(CN2CCCCC2)c2cccc(OC)c21 | 8 µM (≈ 2.85 µg/mL) | 11 µM (≈ 3.92 µg/mL) | 99% | – |
| CCCCCCCCn1cc(CN2CCC(C)CC2)c2ccc(F)cc21 | 4 µM (≈ 1.43 µg/mL) | 5 µM (≈ 1.79 µg/mL) | 99% | – |

From ChEMBL document CHEMBL4007488, “Amphiphilic Indole Derivatives as Antimycobacterial Agents: Structure-Activity Relationships and Membrane Targeting Properties” (J Med Chem, 2017)
